Measurements taken from PMC6219549, “Emergence of a cholecystokinin/sulfakinin signalling system in Lophotrochozoa” (Scientific Reports, 2018).
Entries after “also recorded” stand apart in the source; their conditions may differ. Like-named read-outs stand apart in the source and are kept apart here. Where a SMILES comes first, the peptide text is derived from it. Where no end group is shown, it is not given here. [ ]: non-standard residue; d: D form. sY = N[C@@H](Cc1ccc(OS(=O)(=O)O)cc1)C(=O)O; pGlu = O=C1CC[C@@H](C(=O)O)N1

How the values were obtained:
Cragi-CCKR1 = biological target: T1, Cragi-CCKR1 (Magallana gigas, UniProt A0A345BJM8); test: Calcium fluorescence (mobilization) assay, Cragi-CCKR1 in HEK293T cells; type: cell-based, Crassostrea gigas; details: for EC50: HEK293T transiently transfected with Cragi-CCKR1, Fluo-4 calcium response, 37 °C, read-out: EC50 for receptor activation, Cragi-CCKR1
T1 sequence (A0A345BJM8 1-408): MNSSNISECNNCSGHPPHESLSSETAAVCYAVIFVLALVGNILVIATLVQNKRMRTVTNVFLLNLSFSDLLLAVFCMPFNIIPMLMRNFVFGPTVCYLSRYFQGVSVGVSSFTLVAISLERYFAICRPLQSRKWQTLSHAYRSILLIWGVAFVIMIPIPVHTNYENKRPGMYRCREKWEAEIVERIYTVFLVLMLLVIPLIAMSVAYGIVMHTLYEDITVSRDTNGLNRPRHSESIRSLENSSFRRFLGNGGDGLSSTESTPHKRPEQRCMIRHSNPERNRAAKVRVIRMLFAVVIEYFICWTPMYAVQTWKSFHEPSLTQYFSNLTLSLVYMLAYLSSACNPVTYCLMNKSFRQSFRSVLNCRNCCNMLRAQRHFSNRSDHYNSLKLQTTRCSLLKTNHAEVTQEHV
Description: (§1) The CDS of the Cragi-CCKR genes were amplified by PCR (Pfu DNA polymerase, Promega) using gene-specific sense primers harbouring a Kozak consensus sequence and antisense primers (Supplementary Table 3). Ten nanogram of plasmid DNA (Pal 17.3 vector, Evrogen) from a C. gigas “all developmental stages and adult central nervous system” directional and normalized cDNA library[62] was used as template. The resulting PCR products were directionally cloned into the pcDNA3.1 expression vector (Invitrogen). The correct insertion of the PCR products was confirmed by sequencing. Human Embryonic Kidney (HEK293T) cells were transiently transfected with the Cragi-CCKR/pcDNA3.1 constructs using Fugene HD (Promega) according to the manufacturer’s instructions. As a first step, co-transfection was done with a pcDNA3.1 expression construct for the human Gα16 subunit, a promiscuous G protein that can direct intracellular signalling of GPCRs to the release of calcium via the phospholipase Cβ pathway, regardless of the endogenous G protein coupling of the receptor[63]. To assess receptor activity independent of Gα16, calcium responses were measured in cells expressing only the Cragi-CCKRs. Cells for negative control experiments were transfected with empty pcDNA3.1 and Gα16/pcDNA3.1 constructs.
(§2) Activation of the Cragi-CCKRs by candidate peptide ligands was monitored using a fluorescence-based calcium mobilization assay. Briefly, transfected HEK293T cells were loaded with Fluo-4 Direct (Invitrogen) plus probenecid (qsp 2.5 mM final in the cell) (Molecular Probes) for 1 hour (45 min at 37 °C and 15 min at room temperature). Excitation of the fluorophore was done at 488 nm. The calcium response was measured for 2 min at 525 nm using a FLEXstation 3 (Molecular Devices) at 37 °C. Data were analysed using SoftMax Pro (Molecular Devices). Candidate ligands were first tested at a final concentration of 10^−5 M. Concentration-response measurements of activating ligands were conducted in quadruplicate and for at least three independent experiments. Half maximal effective concentrations (EC50 values) were calculated from concentration-response curves that were constructed using nonlinear regression analysis with a sigmoidal dose-response equation using Prism 5.0 (GraphPad software, USA).

Cragi-CCKR2 = biological target: T2, Cragi-CCKR2 (Magallana gigas, UniProt A0A345BJM9); test: Calcium fluorescence (mobilization) assay, Cragi-CCKR2 in HEK293T cells; type: cell-based, Crassostrea gigas; details: for EC50: HEK293T transiently transfected with Cragi-CCKR2, Fluo-4 calcium response, 37 °C, read-out: EC50 for receptor activation, Cragi-CCKR2
T2 sequence (A0A345BJM9 1-406): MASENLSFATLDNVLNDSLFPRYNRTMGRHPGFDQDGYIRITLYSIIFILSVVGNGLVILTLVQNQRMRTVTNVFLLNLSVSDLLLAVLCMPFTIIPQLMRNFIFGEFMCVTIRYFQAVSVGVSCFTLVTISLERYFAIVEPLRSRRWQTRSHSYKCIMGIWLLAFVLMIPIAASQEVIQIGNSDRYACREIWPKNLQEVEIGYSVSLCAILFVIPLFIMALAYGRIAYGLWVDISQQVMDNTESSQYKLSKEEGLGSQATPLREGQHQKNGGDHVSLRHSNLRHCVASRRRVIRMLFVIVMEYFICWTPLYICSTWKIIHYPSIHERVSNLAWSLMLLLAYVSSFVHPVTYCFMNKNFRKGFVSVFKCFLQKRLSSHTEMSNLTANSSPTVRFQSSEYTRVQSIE
Description: as §1, §2

oyster hindgut = test: Myotropic bioassay on oyster hindgut; parameters: species or system Crassostrea gigas; details: for Duration, Relaxation (R) / Duration, Contraction (C) / Duration, Period (P) / Amplitude (A): mean ± SEM of four experiments, SEM; for Minimal threshold concentration inducing hindgut contraction: isolated oyster hindgut, perfused muscle chamber
Procedure: The myotropic bioassay was performed using oyster's hindgut according to the protocol described earlier for the cuttlefish oviduct. The muscle chamber was perfused at a flow rate of 0.67 mL.min^-1. Increasing concentrations of synthetic peptides (Cragi-CCK1, [[…], [[…], [[…]) were injected in the perfusing flow using a three-way valve to avoid mechanical stress. The flow of the samples into the muscle chamber was traced by adding phenol red.

[1] = concentration-response in quadruplicate, at least three independent experiments
[2] = folds more potent than [Y^8S] Cragi-CCK1, calcium assay
[3] = times more potent than non-sulphated Cragi-CCK1, calcium assay
[4] = high concentrations, HEK293T, Fig. 4

CC(C)C[C@H](NC(=O)CNC(=O)[C@H](Cc1ccc(O)cc1)NC(=O)[C@H](CC(=O)O)NC(=O)[C@H](Cc1ccc(O)cc1)NC(=O)[C@H](CC(=O)O)NC(=O)[C@H](Cc1c[nH]c2ccccc12)NC(=O)[C@H](C)NC(=O)CNC(=O)[C@@H]1CCC(=O)N1)C(=O)NCC(=O)NCC(=O)NCC(=O)N[C@@H](CCCNC(=N)N)C(=O)N[C@@H](Cc1ccccc1)C(N)=O [Cragi-CCK1] ([pGlu]GAWDYDYGLGGGRF-NH2)
EC50 (Cragi-CCKR1; [1]): 195 ± 20 nM
EC50 (Cragi-CCKR2; [1]): 462 ± 67 nM
Duration, Relaxation (R) (oyster hindgut; Peptide 10^−7M, no peptide 10,48 ± 0,78): 16,03 ± 1,13 min
Duration, Contraction (C) (oyster hindgut; Peptide 10^−7M, no peptide 20,18 ± 0,33): 35,23 ± 1,32 min
Duration, Period (P) (oyster hindgut; Peptide 10^−7M, no peptide 30,67 ± 0,67): 51,27 ± 0,15 min
Amplitude (A) (oyster hindgut; Peptide 10^−7M, no peptide 0,161 ± 0,038): 0,203 ± 0,038 g
Minimal threshold concentration inducing hindgut contraction (oyster hindgut): 10^−7 M

N=C(N)NCCC[C@H](NC(=O)CNC(=O)CNC(=O)CNC(=O)[C@H](Cc1ccc(OS(=O)(=O)O)cc1)NC(=O)[C@H](CC(=O)O)NC(=O)[C@@H](N)Cc1ccccc1)C(=O)N[C@@H](Cc1c[nH]c2ccccc12)C(N)=O [[Y^3S] Cragi-CCK2] (H-FD[sY]GGGRW-NH2)
EC50 (Cragi-CCKR2; values given in M): > 100000 nM

CC(C)C[C@H](NC(=O)CNC(=O)[C@H](Cc1ccc(OS(=O)(=O)O)cc1)NC(=O)[C@H](CC(=O)O)NC(=O)[C@H](Cc1ccc(OS(=O)(=O)O)cc1)NC(=O)[C@H](CC(=O)O)NC(=O)[C@H](Cc1c[nH]c2ccccc12)NC(=O)[C@H](C)NC(=O)CNC(=O)[C@@H]1CCC(=O)N1)C(=O)NCC(=O)NCC(=O)NCC(=O)N[C@@H](CCCNC(=N)N)C(=O)N[C@@H](Cc1ccccc1)C(N)=O [[Y^6S-Y^8S] Cragi-CCK1] ([pGlu]GAWD[sY]D[sY]GLGGGRF-NH2)
EC50 (Cragi-CCKR1; [1]): 1.1 ± 0.25 nM
Potency relative to mono-sulphated [Y^8S] Cragi-CCK1, Cragi-CCKR1 (Cragi-CCKR1; [2]): 2 folds
EC50 (Cragi-CCKR2; [1]): 1.98 ± 0.25 nM
Potency relative to mono-sulphated [Y^8S] Cragi-CCK1, Cragi-CCKR2 (Cragi-CCKR2; [2]): 5 folds
Duration, Relaxation (R) (oyster hindgut; Peptide 10^−9M, no peptide 11,80 ± 1,63): 23,82 ± 1,35 min
Duration, Contraction (C) (oyster hindgut; Peptide 10^−9M, no peptide 18,76 ± 1,07): 38,57 ± 3,53 min
Duration, Period (P) (oyster hindgut; Peptide 10^−9M, no peptide 30,57 ± 2,22): 62,39 ± 2,50 min
Amplitude (A) (oyster hindgut; Peptide 10^−9M, no peptide 0,103 ± 0,006): 0,153 ± 0,016 g
Minimal threshold concentration inducing hindgut contraction (oyster hindgut): 10^−9 M

CC(C)C[C@H](NC(=O)CNC(=O)[C@H](Cc1ccc(O)cc1)NC(=O)[C@H](CC(=O)O)NC(=O)[C@H](Cc1ccc(OS(=O)(=O)O)cc1)NC(=O)[C@H](CC(=O)O)NC(=O)[C@H](Cc1c[nH]c2ccccc12)NC(=O)[C@H](C)NC(=O)CNC(=O)[C@@H]1CCC(=O)N1)C(=O)NCC(=O)NCC(=O)NCC(=O)N[C@@H](CCCNC(=N)N)C(=O)N[C@@H](Cc1ccccc1)C(N)=O [[Y^6S] Cragi-CCK1] ([pGlu]GAWD[sY]DYGLGGGRF-NH2)
EC50 (Cragi-CCKR1; [1]): 16.4 ± 0.1 nM
Activation of Cragi-CCKR2 (in words) (Cragi-CCKR2; doses as high as 10^−5M, calcium assay in HEK293T): inactive; also recorded: No activation
Duration, Relaxation (R) (oyster hindgut; Peptide 10^−5M, no peptide 11,35 ± 0,85): 11,23 ± 0,60 min
Duration, Contraction (C) (oyster hindgut; Peptide 10^−5M, no peptide 20,18 ± 0,98): 21 ± 1,42 min
Duration, Period (P) (oyster hindgut; Peptide 10^−5M, no peptide 31,53 ± 1,45): 32,23 ± 1,53 min
Amplitude (A) (oyster hindgut; Peptide 10^−5M, no peptide 0,129 ± 0,019): 0,104 ± 0,021 g
Hindgut response (in words) (oyster hindgut; concentration up to 10^−5M): No response

CC(C)C[C@H](NC(=O)CNC(=O)[C@H](Cc1ccc(OS(=O)(=O)O)cc1)NC(=O)[C@H](CC(=O)O)NC(=O)[C@H](Cc1ccc(O)cc1)NC(=O)[C@H](CC(=O)O)NC(=O)[C@H](Cc1c[nH]c2ccccc12)NC(=O)[C@H](C)NC(=O)CNC(=O)[C@@H]1CCC(=O)N1)C(=O)NCC(=O)NCC(=O)NCC(=O)N[C@@H](CCCNC(=N)N)C(=O)N[C@@H](Cc1ccccc1)C(N)=O [[Y^8S] Cragi-CCK1] ([pGlu]GAWDYD[sY]GLGGGRF-NH2)
EC50 (Cragi-CCKR1; [1]): 2.29 ± 1.55 nM
Potency relative to non-sulphated counterpart (Cragi-CCK1), Cragi-CCKR1 (Cragi-CCKR1; [3]): 90 times
EC50 (Cragi-CCKR2; [1]): 10 ± 1.9 nM
Potency relative to non-sulphated counterpart (Cragi-CCK1), Cragi-CCKR2 (Cragi-CCKR2; [3]): 50 times
Duration, Relaxation (R) (oyster hindgut; Peptide 10^−10M, no peptide 11,08 ± 2,27): 17,62 ± 5,27 min
Duration, Contraction (C) (oyster hindgut; Peptide 10^−10M, no peptide 18,58 ± 1,03): 37,13 ± 3,28 min
Duration, Period (P) (oyster hindgut; Peptide 10^−10M, no peptide 29,66 ± 2,22): 54,75 ± 1,97 min
Amplitude (A) (oyster hindgut; Peptide 10^−10M, no peptide 0,121 ± 0,025): 0,173 ± 0,023 g
Minimal threshold concentration inducing hindgut contraction (oyster hindgut): 10^−10 M

FDYGGGRW-NH2 [Cragi-CCK2]
EC50 (Cragi-CCKR1; values given in M): > 100000 nM
EC50 (Cragi-CCKR2; values given in M): > 100000 nM

FMRF-amide [reference compound]
Hindgut effect (in words) (oyster hindgut; concentration of 10^−7M): No effect

GALRF-amide [oyster GALRF-amide unrelated neuropeptide used as negative control, reference compound]
Calcium response of Cragi-CCKR1 to negative control peptide (Cragi-CCKR1; [4]): No response
Calcium response of Cragi-CCKR2 to negative control peptide (Cragi-CCKR2; [4]): No response
